Values quoted from earlier work, collected in patent publication US8529952B2 (Ethypharm, priority 1999, dated 2013).

CC(C)(Oc1ccc(C(=O)c2ccc(Cl)cc2)cc1)C(=O)O [fenofibric acid]
mean concentration in the plasma (dose of 300 mg of fenofibrate per day): ~15 micrograms/ml | time to maximum concentration in the plasma after ingestion (on average): five | half-life for elimination from the plasma (plasma): ~20 h
